Experimental data as given in patent US10030047B2 (Hoffmann-La Roche Inc., priority 2015, dated 2018).
pIC50: −log10 of the molar value. ≈ marks a conversion by molar mass, not a printed value. Where two headings read alike, the source gives them in different places.

How the values were obtained:
[1] = system: A. baumannii strain ATCC17978; assay: 50% growth inhibitory concentration (IC50) determination, Iso-Sensitest broth; type: cell-based; settings: Acinetobacter baumannii, read-out: IC50 ATCC17978
Experimental: The in vitro antimicrobial activity of the compounds was alternatively determined according to the following procedure:
The assay used a 10-points Iso-Sensitest broth medium to measure quantitatively the in vitro activity of the compounds against A. baumannii ATCC 17978.
Stock compounds in DMSO were serially twofold diluted (e.g. range from 50 to 0.097 μM final concentration) in 384 wells microtiter plates and inoculated with 49 μl the bacterial suspension in Iso-Sensitest medium to have a final cell concentration of ˜5×10^(5) CFU/ml in a final volume/well of 50 ul/well. Microtiter plates were incubated at 35±2° C.
Bacterial cell growth was determined with the measurement of optical density at λ=600 nm each 20 minutes over a time course of 16 h.
Growth inhibition was calculated during the logarithmic growth of the bacterial cells with determination of the concentration inhibiting 50% (IC50) and 90% (IC90) of the growth.
Tables 3, 4 and 5 provide the 50% growth inhibitory concentrations (IC50) in micromoles per liter of the compounds of present invention obtained against the A. baumannii strain ATCC17978.

[2] = system: A. baumannii strain ATCC19606; assay: Minimum inhibitory concentration (MIC) determination, microbroth dilution (CLSI); type: cell-based; settings: Acinetobacter baumannii; A. baumannii ATCC19606; CAMHB; read after 20 hours; >=80% growth inhibition; read-out: ATCC19606 MIC
How it was run: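 After 20 h at 35±2 °C, MIC taken visually and by OD 600 nm as the lowest concentration giving ≥80% growth inhibition. Bacteria (~5×10^5 CFU/ml) were tested per CLSI microbroth dilution against twofold serial compound dilutions in cation-adjusted Mueller Hinton broth.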

[3] = A. baumannii ATCC17978, Iso-Sensitest medium, OD 600 nm over 16 h

Structure (SMILES) | pIC50 [1, 3] | further results
CN1C(=O)[C@H](CCCCN)NC(=O)[C@H](CCCN)NCc2ccccc2Sc2c(Cl)cc(-c3ccccc3Cl)cc2CNC(=O)[C@@H]1Cc1c[nH]c2ccccc12 [Example 141, (12S,15S,18S)-15-(4-Amino-butyl)-18-(3-amino-propyl)-4-chloro-6-(2-chloro-phenyl)-12-(1H-indol-3-ylmethyl)-13-methyl-2-thia-10,13,16,19-tetraaza-tricyclo[19.4.0.0*3,8*]pentacosa-1(25),3,5,7,21,23-hexaene-11,14,17-trione] | 5.89 | 
NCCCC[C@@H]1NC(=O)[C@H](CCCN)NCc2cccnc2Sc2c(ccc(-c3ccccc3)c2Cl)CNC(=O)[C@H](Cc2c[nH]c3ccccc23)NC1=O [Example 125, (11S,14S,17S)-14-(4-Amino-butyl)-11-(3-amino-propyl)-25-chloro-17-(1H-indol-3-ylmethyl)-24-phenyl-2-thia-4,10,13,16,19-pentaaza-tricyclo[19.4.0.0*3,8*]pentacosa-1(25),3,5,7,21,23-hexaene-12,15,18-trione] | 4.63 | 
CN1C(=O)[C@H](CCCCN)NC(=O)[C@H](CCCN)NCc2ccccc2Sc2c(Cl)ncc(Cl)c2CNC(=O)[C@@H]1Cc1c[nH]c2ccccc12 [Example 152] | > 6.41 | 
CN1C(=O)[C@H](CCCCN)NC(=O)[C@@H](CCCN)NCc2cccnc2Sc2c(ccc(-c3ccccc3)c2Cl)CNC(=O)[C@@H]1Cc1c[nH]c2ccccc12 [Example 126, (11R,14S,17S)-14-(4-Amino-butyl)-11-(3-amino-propyl)-25-chloro-17-(1H-indol-3-ylmethyl)-16-methyl-24-phenyl-2-thia-4,10,13,16,19-pentaaza-tricyclo[19.4.0.0*3,8*]pentacosa-1(25),3,5,7,21,23-hexaene-12,15,18-trione] | 4.52 | 
COc1cc(-c2ccc3c(n2)CNC(=O)[C@H](Cc2c[nH]c4ccccc24)N(C)C(=O)[C@H](CCCCN)NC(=O)[C@H](CCCN)NCc2cccnc2S3)ccn1 [Example 217, (7S,10S,13S)-13-((1H-Indol-3-yl)methyl)-10-(4-aminobutyl)-7-(3-aminopropyl)-18-(2-methoxypyridin-4-yl)-12-methyl-6,7,9,10,12,13,15,16-octahydrodipyrido[2,3-b:2′,3′-p][1,5,8,11,14]thiatetraazacycloheptadecine-8,11,14(5H)-trione] | 6.00 | 
CN1C(=O)[C@H](CCCCN)NC(=O)[C@H](CCCN)NCc2cccnc2Sc2c(Cl)ccc(C(F)(F)F)c2CNC(=O)[C@@H]1CC1CNc2ccccc21 (stereo partly drawn) [Example 136, (11S,14S,17S)-14-(4-Amino-butyl)-11-(3-amino-propyl)-25-chloro-17-(2,3-dihydro-1H-indol-3-ylmethyl)-16-methyl-22-trifluoromethyl-2-thia-4,10,13,16,19-pentaaza-tricyclo[19.4.0.0*3,8*]pentacosa-1(25),3,5,7,21,23-hexaene-12,15,18-trione] | 6.22 | 
CN1C(=O)[C@H](CCCCN)NC(=O)[C@H](CCCN)NCc2cccnc2Sc2cnc(Cl)cc2CNC(=O)[C@@H]1Cc1c[nH]c2ccccc12 [Example 159, (7S,10S,13S)— 13-((1H-Indol-3-yl)methyl)-10-(4-aminobutyl)-7-(3-aminopropyl)-18-chloro-12-methyl-6,7,9,10,12,13,15,16-octahydrodipyrido[2,3-b:4′,3′-p][1,5,8,11,14]thiatetraazacycloheptadecine-8,11,14(5H)-trione] | > 6.41 | 
CN1C(=O)[C@H](CCCCN)NC(=O)[C@H](CCCN)NCc2cccnc2Sc2c(Cl)ccc(-c3ccc(N4CCNCC4)cc3)c2CNC(=O)[C@@H]1Cc1c[nH]c2ccccc12 [Example 245, (11S,14S,17S)-14-(4-Amino-butyl)-11-(3-amino-propyl)-25-chloro-17-(1H-indol-3-ylmethyl)-16-methyl-22-(4-piperazin-1-yl-phenyl)-2-thia-4,10,13,16,19-pentaaza-tricyclo[19.4.0.0*3,8*]pentacosa-1(25),3(8),4,6,21,2-hexaene-12,15,18-trione] | > 7.00 | 
CN1C(=O)[C@H](CCCCN)NC(=O)[C@H](CCCN)NCc2ccccc2Sc2c(-c3cccnc3)ncc(Cl)c2CNC(=O)[C@@H]1Cc1c[nH]c2ccccc12 [Example 194] | 5.48 | 
NCCCC[C@@H]1NC(=O)[C@@H](CCCN)NCc2cccnc2Sc2c(ccc(-c3ccccc3)c2Cl)CNC(=O)[C@H](Cc2c[nH]c3ccccc23)NC1=O [Example 124, (11R,14S,17S)-14-(4-Amino-butyl)-11-(3-amino-propyl)-25-chloro-17-(1H-indol-3-ylmethyl)-24-phenyl-2-thia-4,10,13,16,19-pentaaza-tricyclo[19.4.0.0*3,8*]pentacosa-1(25),3,5,7,21,23-hexaene-12,15,18-trione] | 4.46 | 
CN1C(=O)[C@H](CCCCN)NC(=O)[C@H](CCCN)NCc2cc(-c3cccnc3)ccc2Sc2c(Cl)cccc2CNC(=O)[C@@H]1Cc1c[nH]c2ccccc12 [Example 208, (12S,15S,18S)-15-(4-Amino-butyl)-18-(3-amino-propyl)-4-chloro-12-(1H-indol-3-ylmethyl)-13-methyl-23-pyridin-3-yl-2-thia-10,13,16,19-tetraaza-tricyclo[19.4.0.0*3,8*]pentacosa-1(25),3,5,7,21,23-hexaene-11,14,17-trione] | 4.90 | 
CN1C(=O)[C@H](CCCCN)NC(=O)[C@H](CCCN)NCc2cc(-c3ccc(CN)cc3)ccc2Sc2c(Cl)cccc2CNC(=O)[C@@H]1Cc1c[nH]c2ccccc12 [Example 216, (12S,15S,18S)-15-(4-Amino-butyl)-23-(4-aminomethyl-phenyl)-18-(3-amino-propyl)-4-chloro-12-(1H-indol-3-ylmethyl)-13-methyl-2-thia-10,13,16,19-tetraaza-tricyclo[19.4.0.0*3,8*]pentacosa-1(25),3,5,7,21,23-hexaene-11,14,17-trione] | 6.15 | 
CN1C(=O)[C@H](CCCCN)NC(=O)[C@H](CCCN)NCc2ccccc2Sc2cnc(Cl)cc2CNC(=O)[C@@H]1Cc1c[nH]c2ccccc12 [Example 153] | > 6.41 | 
CN1C(=O)[C@H](CCCCN)NC(=O)[C@H](CCCN)NCc2cccnc2Sc2c(Cl)ccc(-c3ccc(C(=O)O)cc3)c2CNC(=O)[C@@H]1Cc1c[nH]c2ccccc12 [Example 239, 4-[(11S,14S,17S)-14-(4-Amino-butyl)-11-(3-amino-propyl)-25-chloro-17-(1H-indol-3-ylmethyl)-16-methyl-12,15,18-trioxo-2-thia-4,10,13,16,19-pentaaza-tricyclo[19.4.0.0*3,8*]pentacosa-1 (25),3(8),4,6,21,23-hexaen-22-yl]-benzoic acid] |  | pIC50 ([1]; ATCC17978, 16 h): > 6.00
CN1C(=O)[C@H](CCCCN)NC(=O)[C@H](CCCN)NCc2cc(-c3ccccc3)ccc2Sc2c(Cl)cccc2CNC(=O)[C@@H]1Cc1c[nH]c2ccccc12 [Example 207, (12S,15S,18S)-15-(4-Amino-butyl)-18-(3-amino-propyl)-4-chloro-12-(1H-indol-3-ylmethyl)-13-methyl-23-phenyl-2-thia-10,13,16,19-tetraaza-tricyclo[19.4.0.0*3,8*]pentacosa-1(25),3,5,7,21,23-hexaene-11,14,17-trione] | 5.05 | 
CCCC[C@@H]1NC(=O)[C@H](CCCN)NCc2cccnc2Sc2c(Cl)cc(Cl)cc2CNC(=O)[C@H](Cc2c[nH]c3ccccc23)N(C)C1=O [Example 253, (11S,14S,17S)-11-(3-Amino-propyl)-14-butyl-23,25-dichloro-17-(1H-indol-3-ylmethyl)-16-methyl-2-thia-4,10,13,16,19-pentaaza-tricyclo[19.4.0.0*3,8*]pentacosa-1(25),3(8),4,6,21,23-hexaene-12,15,18-trione] | 5.38 | 
CN1C(=O)[C@H](CCCCN)NC(=O)[C@H](CCCN)NCc2cc(Br)ccc2Sc2c(Cl)cccc2CNC(=O)[C@@H]1Cc1c[nH]c2ccccc12 [Example 206, (12S,15S,18S)-15-(4-Amino-butyl)-18-(3-amino-propyl)-23-bromo-4-chloro-12-(1H-indol-3-ylmethyl)-13-methyl-2-thia-10,13,16,19-tetraaza-tricyclo[19.4.0.0*3,8*]pentacosa-1(25),3,5,7,21,23-hexaene-11,14,17-trione] | 5.85 | 
CN1C(=O)[C@H](CCCCN)NC(=O)[C@H](CCCN)NCc2ccccc2Sc2c(ccc(-c3ccccc3)c2Cl)CNC(=O)[C@@H]1Cc1c[nH]c2ccccc12 [Example 176, (12S,15S,18S)-15-(4-Amino-butyl)-18-(3-amino-propyl)-4-chloro-12-(1H-indol-3-ylmethyl)-13-methyl-5-phenyl-2-thia-10,13,16,19-tetraaza-tricyclo[19.4.0.0*3,8*]pentacosa-1(25),3,5,7,21,23-hexaene-11,14,17-trione] | 5.29 | 
C[C@@H]1NC(=O)[C@H](Cc2c[nH]c3ccccc23)N(C)C(=O)[C@H](CCCCN)NC(=O)[C@H](CCCN)NCc2ccccc2Sc2c(Cl)cccc21 [Example 60, (9S,12S,15S,18S)-15-(4-Amino-butyl)-18-(3-amino-propyl)-4-chloro-12-(1H-indol-3-ylmethyl)-9,13-dimethyl-2-thia-10,13,16,19-tetraaza-tricyclo[19.4.0.0*3,8*]pentacosa-1(25),3,5,7,21,23-hexaene-11,14,17-trione] |  | MIC [2]: 2 µg/mL (≈ 2.78 µM)
